In US10358467B2, “Therapeutic targets for cancer progression” (The Regents of the University of California, priority 2015, dated 2019):

Tests used:
[1] = system: β-Catenin/TCF/LEF pathway in DLD1 7TGP cells; assay: β-Catenin reporter assay (7TGP); assay type: cell-based, human; details: stable expression, starved and stimulated with Wnt5a, versus vector control
Protocol: These assays were carried out using the well-established reporter 7×Tcf-eGFP (7TGP) (Fuerer & Nusse, 2010). Stable cells lines expressing this reporter were generated by lentiviral transduction and subsequent selection using standard procedures. Lentiviral infection and selection were performed according to standard procedures. Briefly, 10 cm plates DLD1 cells at 70% confluency were incubated with media containing 8 μg/mL polybrene and 10 μl of lentivirus for 6 h. After 24 hours post infection, selection of puromycin-resistant clones was initiated by adding the antibiotic at 2 μg/ml final concentration. The resultant DLD1-7TGP stable cells were subsequently transfected with various myc-DAPLE constructs and selected for G418 resistance as described earlier in methods. The DLD1-7TGP cells stably expressing myc-DAPLE were incubated overnight at 0.2% FBS, analyzed by fluorescence microscopy, and photographed prior to lysis. Whole cell lysates samples were then boiled in Laemmli's sample buffer and GFP protein expression was monitored by immunoblotting.

DLD1 cells [2] = assay: Anchorage-independent tumor growth assay; assay type: cell-based, human; details: soft agar
Protocol: Anchorage-independent growth of DLD1 cells was analyzed in agar as described previously (Wallert M A, 2007). Briefly, petri plates (60 mm) were pre-layered with 3 ml 1% Bacto agar (Life Technologies) in DMEM containing 10% FBS. Approximately ˜5000 DLD1 cells stably expressing various DAPLE constructs were then plated on top in 3 ml of 0.3% agar-DMEM with 10% FBS. All assays were carried out using three replicate plates at a seeding density of ˜5000 cells/plate. Following overnight incubation in 5% CO2 incubator, 1 ml DMEM supplemented with 2% FBS was added to maintain hydration. After 2 wks of growth, colonies were stained with 0.005% crystal violet/methanol for 1 h, and subsequently photographed by light microscopy. The number of colonies in ˜15-20 randomly-selected fields were counted under 10× magnification. The remaining DLD1 cells were lysed and analyzed by immunoblotting to confirm DAPLE construct expression. Each experiment was analyzed in triplicate.

[3] = system: Ras-transformed NIH3T3 cells; assay: Transformation assay, colony formation in soft agar; assay type: cell-based; details: NIH3T3 co-expressing HA-KRas G12V
Protocol: Neoplastic transformationin Ras-transformed NIH3T3 fibroblasts was analyzed using standard assays of colony formation in soft agar as described previously (Clark et al, 1995). Low passage NIH3T3 cells (˜5000) stably co-transfected with appropriate myc-DAPLE construct (2 μg cDNA) and HA-Ras G12V (1 μg cDNA) were analyzed for their ability to form tumor foci in soft agar plates. Plates were incubated in 5% CO2 at 37° C. for ˜2 weeks in growth media supplemented with 2% FBS. They were finally incubated with 0.1% (wt/vol)dimethylthiazol-2-yl)2 2,5-diphenyl tetrazolium bromide (MTT; Sigma) in PBS for 1 h to visualize colonies. The remaining NIH3T3 cells not used for this assay were lysed and analyzed for myc-DAPLE and Ha-Ras G12V expression by immunoblotting.

DLD1 cells [4] = assay: Anchorage-dependent tumor growth assay; assay type: cell-based, human; details: for inhibition of anchorage-dependent tumor growth: DLD1 cells, plastic plates
Protocol: Anchorage-dependent growth was monitored on solid (plastic) surface as described previously (Franken et al, 2006). Briefly, anchorage-dependent growth was monitored on solid (plastic) surface. Approximately ˜1000 DLD1 cells stably expressing various DAPLE constructs were plated in 6-well plates and incubated in 5% CO2 at 37° C. for ˜2 weeks in 0.2% FBS growth media. Colonies were then stained with 0.005% crystal violet for 1 h. The remaining DLD1 cells were lysed and analyzed by immunoblotting to confirm DAPLE construct expression. Each experiment was analyzed in triplicate.

NIH3T3 cells = assay: 3D spheroid matrigel invasion assay; assay type: cell-based; details: in response to Wnt5a
Protocol: NIH3T3 cell invasion assay in 3D culture was performed according to the manufacturer's protocol (Trevigen, Cultrex 3D Spheroid BME Cell Invasion Assay, catalog #3500-096-K). Briefly, non-invasive NIH3T3 cells (˜3000 cells) transfected with empty vector (control) or myc-DAPLEconstructs were incubated first in the Spheroid Formation extracellular matrix (ECM) containing 0.2% FBS for 3 days. Invasion matrix was then added and layered on top with media containing FBS. […] Photographs were analyzed and pseudocolored by Image J to reflect cell density.

His-Gαi3 [5] = molecular target: T1, His-Gαi3 (Rattus norvegicus, UniProt P08753); assay: Steady-state GTPase assay; assay type: biochemical; details: parallel reactions, WT replaced by F1675A
T1 construct: His; made in house; host or cells: E. coli BL21 (DE3)
Protocol: Under the experimental conditions of steady-state GTPase assays, GTP hydrolysis occurs as a two-step reaction, i.e., 1) GDP is released from the G protein and exchanged for GTP, and 2) the GTP loaded is hydrolyzed. Nucleotide exchange is the rate limiting step in this process because it is ˜50-100 times slower than GTP hydrolysis by Gαi subunits (Mukhopadhyay & Ross, 2002). Thus, the steady-state GTPase activity reflects the rate of nucleotide exchange, and was performed as described previously (Garcia-Marcos et al, 2010; Garcia-Marcos et al, 2012; Garcia-Marcos et al, 2011b). Briefly, His-Gαi3 (100 nM) was preincubated with different concentrations of His-DAPLE-CT (aa 1650-2028) for 15 min at 30° C. in assay buffer [20 mM Na-HEPES, pH 8, 100 mM NaCl, 1 mM EDTA, 2 mM MgCl2, 1 mM DTT, 0.05% (w:v) C12E10]. GTPase reactions were initiated at 30° C. by adding an equal volume of assay buffer containing 1 μM [γ-^32P]GTP (˜50 c.p.m/fmol). […] Samples were then centrifuged for 10 min at 10,000×g, and 500 μl of the resultant supernatant were scintillation counted to quantify released [^32P]Pi. For the time course experiments, data was expressed as raw c.p.m. For the dose-dependence curve experiments, the background [^32P]Pi detected at 15 min in the absence of G protein was subtracted from each reaction and data expressed as percentage of the Pi produced by His-Gαi3 in the absence of His-DAPLE-CT.

GST-FZD7R-CT = molecular target: T2, GST-FZD7R-CT (Homo sapiens, UniProt O75084); assay: GST-FZD7-CT pulldown of His-Gαi3; assay type: binding; details: His-Gαi3 preloaded with GDP, in the presence of DAPLE-CT
T2 construct: the GST-tagged cytoplasmic tail of FZD7R; made in house; host or cells: bacteria (E. coli BL21 (DE3)); plasmid a gift of R. Yao
Protocol: GST-FZD7-CT and GST-PBD constructs were immobilized on glutathione-Sepharose beads directly from bacterial lysates by overnight incubation at 4° C. with constant tumbling. Next morning, GST-FZD7-CT immobilized on glutathione beads were washed and subsequently incubated with His-tagged DAPLE-CT or Gαi3 proteins at 4° C. with constant tumbling. Washes and immunoblotting were performed as previously.

His-Gαi3 [6] = molecular target: T1, His-Gαi3; assay: GTPγS binding assay; assay type: biochemical; details: 0-2 μM, 15 min
Protocol: GTPγS binding was measured using a filter binding method as described previously (Garcia-Marcos et al, 2010; Garcia-Marcos et al, 2011b). His-Gαi3 (100 nM) was preincubated with different concentrations of His-DAPLE-CT (aa 1650-2028) for 15 min at 30° C. in assay buffer [20 mM Na-HEPES, pH 8, 100 mM NaCl, 1 mM EDTA, 25 mM MgCl2, 1 mM DTT, 0.05% (w:v) C12E10]. Reactions were initiated at 30° C. by adding an equal volume of assay buffer containing 1 μM [^35S] GTPγS (˜50 c.p.m/fmol). Duplicate aliquots (25 μl) were removed at different time points, and binding of radioactive nucleotide was stopped by addition of 3 ml, ice-cold wash buffer (20 mM Tris-HCl, pH 8.0, 100 mM NaCl, 25 mM MgCl2). The quenched reactions were rapidly passed through BA-85 nitrocellulose filters (GE Healthcare) and washed with 4 ml wash buffer. Filters were dried and subjected to liquid scintillation counting. To determine the specific nucleotide binding, the background [^35S]GTPγS detected in the absence of G protein was subtracted from each reaction and data expressed as percentage of the [^35S] GTPγS bound by His-Gαi3 in the absence of His-DAPLE-CT.

[7] = molecular target: T3, GST-Gαi3·Gβγ preformed complexes (Rattus norvegicus, UniProt P08753); assay: Gβγ displacement assay; assay type: binding; details: 0.05-1 μM WT or 1 μM F1675A
T3 construct: made in house; host or cells: E. coli BL21 (DE3) for GST-Gαi3; Gβγ endogenous from HEK293T lysate
Protocol: This assay was performed as described previously (Garcia-Marcos et al, 2009). Briefly, GST alone or GST-Gαi3 proteins immobilized on glutathione-agarose beads were incubated overnight at 4° C. with HEK293T cell lysates in binding buffer [50 mM Tris-HCl, pH 7.4, 100 mM NaCl, 0.4% (v:v) NP-40, 10 mM MgCl2, 5 mM EDTA, 2 mM DTT, protease inhibitor cocktail supplemented with 30 μM GDP]. Unbound Gβγ-subunits were washed twice with the same buffer and proteins bound to the glutathione-agarose beads divided into equal aliquots containing ˜5 μg (˜0.4 μM) GST-fusion proteins. Aliquots were incubated with increasing concentrations (0.05-1 μM) of purified His-DAPLE-CT (1650-2028) wild-type or 1 μM His-DAPLE-CT F1675A in binding buffer supplemented with GDP (˜200 μl) for 5 h at 4° C. Glutathione-agarose beads were washed and bound proteins eluted by boiling in Laemmli sample buffer and separated by SDS-PAGE.

| Molecule | eGFP signal (Wnt transcriptional activity) [1] | inhibition of anchorage-independent tumor growth (DLD1 cells [2]) | reduction of number of colonies in soft-agar [3] | adherent colonies per well (tumor growth) (DLD1 cells [4]; DLD1 cells stably expressing constructs, 2-3 weeks) | inhibition of anchorage-dependent tumor growth (DLD1 cells [4]) | invasion of matrigel by spheroids (NIH3T3 cells) | acceleration of steady-state GTPase activity diminished versus His-DAPLE-CT WT (His-Gαi3 [5]) | increase of Gαi3 binding to GST-FZD7R-CT (GST-FZD7R-CT) | initial rate of nucleotide (GTPγS) binding by His-Gαi3 (His-Gαi3 [6]) | displacement of Gβγ from pre-assembled complex with GST-Gαi3 [7] |
| --- | --- | --- | --- | --- | --- | --- | --- | --- | --- | --- |
| DAPLE-WT: myc-tagged full length human DAPLE (SEQ ID NO: 2) expressed in cells from pcDNA 3.1 | showed inhibition of eGFP | ~50% | ~65% | can inhibit tumor growth | ~90% | increase of invasion tracks |  |  |  |  |
| DAPLE-FA: full length myc-DAPLE with F1675A mutation in the GBA motif, expressed in cells |  | enhanced oncogenicity | failed to inhibit |  | failed to inhibit |  |  |  |  |  |
| His-DAPLE-CT FA: His-DAPLE-CT with F1675A mutation, Gαi3 binding-deficient mutant (protein, left off: small tags and cut ends) GTAPPYVGVRPCSASPSSEMVTLEEALEESNRSSPTHDTPSCRDDLLSDYFRKASDPPAIGGQPGPPAKKEGAKMPTNFVAPTVKMAAPTSEGRPLKPGQYVKPNFRLTEAEAPPSVAPRQAQPPQSLSLGRPRQAPVPPASHAPASRSASLSRAFSLASADLLRASGPEACKQESPQKLGAPEALGGRETGSHTLQSPAPPSSHSLARERTPLVGKAGSSCQGPGPRSRPLDTRRFSLAPPKEERLAPLHQSATAPAIATAGAGAAAAGSGSNSQLLHFSPAAAPAARTKPKAPPRSGEVATITPVRAGLSLSEGDGVPGQGCSEGLPAKSPGRSPDLAPHLGRALEDCSRGSVSKSSPASPEPGGDPQTVWYEYGCV |  |  |  |  |  |  | > 90% | not | not significantly affected | not |
